Data on one molecule can be found in PMC8975999, “Inhibition of RIPK1 by ZJU-37 promotes oligodendrocyte progenitor proliferation and remyelination via NF-κB pathway” (Cell Death Discovery, 2022).

For this assay, the target named is T1, RIPK1 (receptor interacting serine/threonine protein kinase 1) (Homo sapiens, UniProt Q13546).
T1 construct: Flag-RIPK1 immunoprecipitated from HEK293T cells
T1 sequence (Q13546 1-671): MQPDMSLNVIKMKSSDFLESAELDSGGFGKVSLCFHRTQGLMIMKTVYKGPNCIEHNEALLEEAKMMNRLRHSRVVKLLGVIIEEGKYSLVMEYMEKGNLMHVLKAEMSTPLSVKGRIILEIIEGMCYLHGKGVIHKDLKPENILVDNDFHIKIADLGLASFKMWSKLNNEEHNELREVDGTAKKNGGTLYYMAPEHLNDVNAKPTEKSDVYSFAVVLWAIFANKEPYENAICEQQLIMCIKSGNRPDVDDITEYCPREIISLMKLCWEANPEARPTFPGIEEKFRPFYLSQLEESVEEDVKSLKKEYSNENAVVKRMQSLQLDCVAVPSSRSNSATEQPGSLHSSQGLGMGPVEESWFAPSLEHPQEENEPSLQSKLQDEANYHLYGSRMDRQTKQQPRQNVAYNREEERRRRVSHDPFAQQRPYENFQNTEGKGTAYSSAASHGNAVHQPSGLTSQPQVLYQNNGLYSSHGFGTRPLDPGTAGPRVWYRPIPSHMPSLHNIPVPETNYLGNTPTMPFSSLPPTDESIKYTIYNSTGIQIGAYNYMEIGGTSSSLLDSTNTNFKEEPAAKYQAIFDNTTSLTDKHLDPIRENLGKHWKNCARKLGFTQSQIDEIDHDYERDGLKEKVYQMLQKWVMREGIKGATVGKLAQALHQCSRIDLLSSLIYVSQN
In words: in vitro kinase assay on immunoprecipitated Flag-RIPK1 (Kinase-Glo; p-S166 western blot). The assay is classed as biochemical.

Molecule `CN1C(=O)[C@@H](Cc2c[nH]c3c(Cl)c(F)ccc23)N(C=O)C1=O` [ZJU-37] returned an IC50 of 366 nM. This counts as sub-micromolar.
